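Five compound concentrations were applied to cells in 96-well plates for 48 hours; endpoints were derived by simple linear interpolation of the resulting dose-response curve. GI50 = concentration required for 50% inhibition of growth. TGI denotes the concentration required for complete inhibition of growth.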
Legend:
Assay in all cases: inhibition of tumour cell growth, NCI panel, 48 h
SK-MEL-2 melanoma = tested on: SK-MEL-2 melanoma
HCC-2998 colon = tested on: HCC-2998 colon
NCI-H460 lung = tested on: NCI-H460 lung
KM12 colon = tested on: KM12 colon
RXF 393 renal = tested on: RXF 393 renal
SF-268 CNS = tested on: SF-268 CNS
SK-MEL-28 melanoma = tested on: SK-MEL-28 melanoma
SW-620 colon = tested on: SW-620 colon
U251 CNS = tested on: U251 CNS
NCI-H522 lung = tested on: NCI-H522 lung

Compound | GI50 (SK-MEL-2 melanoma) [µM] | TGI (SK-MEL-2 melanoma) [µM] | GI50 (HCC-2998 colon) [µM] | TGI (HCC-2998 colon) [µM] | GI50 (NCI-H460 lung) [µM] | TGI (NCI-H460 lung) [µM] | GI50 (KM12 colon) [µM] | TGI (KM12 colon) [µM] | GI50 (RXF 393 renal) [µM] | TGI (RXF 393 renal) [µM] | GI50 (SF-268 CNS) [µM] | TGI (SF-268 CNS) [µM] | GI50 (SK-MEL-28 melanoma) [µM] | TGI (SK-MEL-28 melanoma) [µM] | GI50 (SW-620 colon) [µM] | TGI (SW-620 colon) [µM] | GI50 (U251 CNS) [µM] | TGI (U251 CNS) [µM] | GI50 (NCI-H522 lung) [µM] | TGI (NCI-H522 lung) [µM]
Oc1cc(O)c2c(=S)cc(-c3ccc(Cl)cc3)oc2c1 | 2.61 | 7.46 | 1.7 | 14.5 | 2.96 | 13.3 | 2.08 | 11.5 | 3.15 | 12.5 | 3.23 | 21.3 | 4.15 | 18.4 | 3.55 | 16.9 | 3.24 | 11.3 | 2.29 | 7.25
COC(=O)c1ccc([N+](=O)[O-])c(O)c1 | – | > 100 | – | > 100 | – | > 100 | – | > 100 | – | > 100 | – | > 100 | – | > 100 | – | > 100 | – | > 100 | – | > 100
COc1cccc(NC(=O)CC(=O)N2NC(C)C(N=Nc3cccc(C(=O)O)c3)C2=O)c1 (stereo not given) | – | > 100 | – | > 100 | – | > 100 | – | > 100 | – | – | – | > 100 | – | > 100 | – | > 100 | – | > 100 | – | > 100
CC(=O)OC1CCC2(C)C(=CCC3C2CCC2(C)C(C(C)C(=O)O)CCC32)C1 (stereo not given) | – | > 100 | – | > 100 | – | > 100 | – | > 100 | – | > 100 | – | > 100 | – | > 100 | – | > 100 | – | > 100 | – | > 100
O=S1(=O)CS(=O)(=O)OCCCO1 | – | > 100 | – | > 100 | – | > 100 | – | > 100 | – | > 100 | – | > 100 | – | > 100 | – | > 100 | – | > 100 | – | > 100
N#CN1CCC[C@H]1C(=O)N1CCc2c(-c3[nH]nc4ncccc34)cccc21 | < 0.01 | 18.2 | 0.12 | 11.6 | 0.105 | 11.1 | < 0.01 | 10.1 | < 0.01 | 0.145 | < 0.01 | 13.2 | < 0.01 | 13.9 | < 0.01 | 13.5 | 0.281 | 2.91 | < 0.01 | 0.412
CCOC(=O)C1=C(C)NC2SC(=O)/C(=C\c3ccccc3)N2C1c1ccccc1 (stereo not given) | > 100 | > 100 | > 100 | > 100 | 93.5 | > 100 | 73.7 | > 100 | > 100 | > 100 | > 100 | > 100 | > 100 | > 100 | > 100 | > 100 | > 100 | > 100 | > 100 | > 100
CC(=O)OCC1OC(OC2=C(CC=C(Cl)Cl)C(=O)c3ccccc3C2=O)C(OC(C)=O)C(OC(C)=O)C1OC(C)=O (stereo not given) | 3.33 | 9.25 | 6.96 | 20.9 | 12.5 | 34.4 | 3.26 | 10.1 | 2.53 | 8.01 | 2.75 | 8.03 | 3.93 | 12.8 | 1.74 | 3.88 | 3.54 | 13.3 | 2.17 | 5.2
CCC1CC(=O)N(SCC(N)C(=O)O)C1=O (stereo not given) | – | > 100 | – | – | – | > 100 | – | > 100 | – | > 100 | – | > 100 | – | > 100 | – | > 100 | – | > 100 | – | > 100
OC(COc1cccc2ccccc12)CN1CCN(c2ccccc2)CC1 (stereo not given) | 16.2 | 30.6 | 16.5 | 30.7 | 15.9 | 31 | 16.1 | 31 | 18.2 | 32.9 | 16.4 | 31.3 | 17 | 31.6 | 15.2 | 30.1 | 17.3 | 32.1 | 14.4 | 29.2
N#CCC(=O)N/N=C1\C(=O)N(c2ccc(Cl)cc2)C(=O)C(=O)C1c1nc2ccccc2o1 (stereo not given) | – | > 100 | – | > 100 | – | > 100 | – | > 100 | – | > 100 | – | > 100 | – | > 100 | – | > 100 | – | > 100 | – | > 100
C[C@H]1CC(=O)C2=CCCC3(SCCCS3)[C@@H]2[C@H]1CO | – | > 100 | – | > 100 | – | > 100 | – | > 100 | – | > 100 | – | > 100 | – | > 100 | – | > 100 | – | > 100 | – | > 100
COc1cc2cc[n+]3c4cc(OC)c(OC)cc4c(C)cc3c2cc1OC | – | > 100 | – | > 100 | – | > 100 | – | > 100 | – | – | – | – | – | > 100 | – | > 100 | – | > 100 | – | > 100
O=C(c1cccs1)c1c(C(F)(F)F)n([O-])c2ccc(F)cc2[n+]1=O | 0.841 | 2.37 | 0.8 | 1.98 | 1.38 | 3.84 | 0.163 | 0.35 | 1.2 | 2.74 | – | – | 1.52 | 2.86 | 0.523 | 2.32 | 1.31 | 2.6 | 1.46 | 2.88
O=c1c2cc(Br)cc(Br)c2[nH]c(=S)n1-c1ccccc1 | – | > 100 | – | > 100 | – | > 100 | – | > 100 | – | – | – | > 100 | – | > 100 | – | > 100 | – | > 100 | – | –
CN(C)CCN=Cc1c2ccccc2c(=O)n2c1oc1ccccc12 | 16.6 | 48.2 | 12.2 | 24.6 | 2.94 | 11.7 | 8.8 | 21.7 | 12.7 | 28.6 | 5.56 | 20 | 10.5 | 23.1 | – | – | 7.4 | 21 | 16.5 | 38

Source: PubChem BioAssay (NCI)
